According to patent US9044486B2, “Method for prophylaxis or treatment of feline infectious peritonitis” (Cornell University, priority 2008, dated 2015):
Where two headings read alike, the source gives them in different places. Where a SMILES comes first, the peptide text is derived from it. The star is where a group is joined. Cbz = O=C(OCc1ccccc1)*; CHN2 = [N-]=[N+]=C*; tBu = CC(C)(C)*

How the values were obtained:
[1] = system: FIPV-1146; assay: Infection of primary feline blood monocytes by immunofluorescence; format: cell-based, Feline infectious peritonitis virus; settings: monocytes pretreated with 10 μM inhibitor; 12 h post-infection
[2] = system: FIPV-1146; assay: Growth assay: production of extracellular virus by TCID50, A-72 cells; format: cell-based, Feline infectious peritonitis virus; settings: A-72 cells pretreated with 10 μM inhibitor; media collected 9 h post-infection; vs DMSO control
[3] = system: FIPV-1146; assay: Infection of feline cell lines CRFK, AK-D, Fc2Lu by immunofluorescence; format: cell-based, Feline infectious peritonitis virus
[4] = molecular target: cathepsin L (Homo sapiens, UniProt P07711); settings: kinact/Ki (k2/Ki); cited from earlier work
[5] = system: influenza virus; format: cell-based; settings: for influenza virus entry, cathepsin inhibitor treatment: anti-influenza nucleoprotein mAb H19
[6] = system: FIPV-1146; format: cell-based, Feline infectious peritonitis virus; settings: for infection by FIPV-1146 (entry), inhibitor pre-incubation: five log dilutions of inhibitor 60 min pre-infection
[7] = system: FIPV-DF2; assay: Infection of primary feline blood monocytes by immunofluorescence; format: cell-based, Feline infectious peritonitis virus; settings: monocytes pretreated with 10 μM inhibitor; 12 h post-infection
[8] = system: serotype I FIPV black strain; assay: Infection of AK-D cells by a serotype I FCoV, immunofluorescence; format: cell-based, Feline infectious peritonitis virus; settings: AK-D cells pretreated with 10 uM inhibitor
Procedure: AK-D cells were pretreated with either 10 uM cathepsin B inhibitor CA074-Me (CatB-I), 10 uM cathepsin L inhibitor Z-FY(tBu)-DMK (CatL-I), or 10 mM NH4Cl, and then infected with virus the serotype I FIPV black strain. Immunofluorescence was performed essentially as described for FIG. 4.
AK-D cells were pretreated with either 10 uM cathepsin B inhibitor CA074-Me (CatB-I), 10 uM cathepsin L inhibitor Z-FY(tBu)-DMK (CatL-I), or 10 mM NH4Cl, and then infected with virus FIPV black strain, a serotype I FIPV. Immunofluorescence was performed essentially as described for FIG. 4.

[9] = system: FIPV-DF2; assay: Infection of feline cell lines CRFK, AK-D, Fc2Lu by immunofluorescence; format: cell-based, Feline infectious peritonitis virus
[10] = system: FECV-1683; assay: Growth assay: production of extracellular virus by TCID50, A-72 cells; format: cell-based, feline enteric coronavirus; settings: A-72 cells pretreated with 10 μM inhibitor; media collected 9 h post-infection; vs DMSO control
[11] = system: FECV-1683; assay: Infection (entry) assay by immunofluorescence, A-72 cells; format: cell-based, feline enteric coronavirus; settings: for infection by FECV-1683 (entry), inhibitor pre-incubation: five log dilutions of inhibitor 60 min pre-infection; for infection by FECV-1683 (entry), inhibitor pre-incubation / infection by FECV-1683, inhibitor treatment after entry: fixed 6 h post-infection; for infection by FECV-1683, inhibitor treatment after entry: inhibitor 60 min post-infection
[12] = molecular target: T1, cathepsin B (Mus musculus, UniProt P10605); settings: 10 mg/kg; cited from earlier work
T1 construct: host or cells: mouse (in vivo)

[13] = system: FECV-1683; assay: Infection of feline cell lines CRFK, AK-D, Fc2Lu by immunofluorescence; format: cell-based, feline enteric coronavirus; settings: Fc2Lu cells, pretreated with 10 uM inhibitor or 10 mM NH4Cl, 6 h post-infection
[14] = molecular target: cathepsin B (Homo sapiens, UniProt P07858); settings: kinact/Ki (k2/Ki); cited from earlier work
[15] = system: influenza virus; format: cell-based; settings: A-72 cells pretreated with inhibitor; control virus
[16] = system: Sendai virus; format: cell-based
[17] = system: human coronaviruses; settings: cited from earlier work
[18] = system: FIPV; settings: cited from earlier work
[19] = system: murine coronavirus (A59); settings: cited from earlier work
[20] = CRFK, AK-D, Fc2Lu cells, pretreated with 10 uM inhibitor or 10 mM NH4Cl, 6 h post-infection
[21] = A-72 cells, fixed 6 h post-infection
[22] = A-72 cells, post-treatment at the concentrations shown in FIG. 3
[23] = A-72 cells, pretreatment with 50 nM bafilomycin A1
[24] = A-72 cells, 1 h post-infection, concentrations shown in FIG. 3

T1 sequence (P10605 80-333): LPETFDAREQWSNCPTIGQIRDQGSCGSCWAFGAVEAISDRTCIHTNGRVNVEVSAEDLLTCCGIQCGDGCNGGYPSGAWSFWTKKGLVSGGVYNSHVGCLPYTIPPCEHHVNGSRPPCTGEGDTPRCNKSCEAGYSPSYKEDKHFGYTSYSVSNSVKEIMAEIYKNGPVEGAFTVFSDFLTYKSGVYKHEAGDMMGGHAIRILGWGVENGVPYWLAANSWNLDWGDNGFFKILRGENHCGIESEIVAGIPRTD
Sequence of cathepsin L (P07711 114-333, species assumed): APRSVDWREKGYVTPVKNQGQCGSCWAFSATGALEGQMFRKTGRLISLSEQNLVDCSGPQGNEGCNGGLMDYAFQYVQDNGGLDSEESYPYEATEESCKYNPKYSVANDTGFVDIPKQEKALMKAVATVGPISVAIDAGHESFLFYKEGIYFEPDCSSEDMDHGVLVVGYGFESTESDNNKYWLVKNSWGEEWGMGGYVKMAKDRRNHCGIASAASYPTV

CCCNC(=O)[C@H]1O[C@@H]1C(=O)N[C@H](C(=O)N1CCC[C@H]1C(=O)OC)[C@@H](C)CC (relative stereo) [CA074-Me, [L-3-trans-(Propylcarbamoyl)oxirane-2-carbonyl]-L-isoleucyl-L-proline Methyl Ester]
inhibition of infection by FIPV-1146 of primary feline blood monocytes [1]: 85-95%
production of FIPV-1146 viral particles (extracellular virus, TCID50) [2]: considerably limited the production
infection by FIPV-1146 of feline cell lines [3, 20]: almost completely prevented infection
apparent second order rate constant for cathepsin L [4]: 85 M⁻¹ s⁻¹
influenza virus entry, cathepsin inhibitor treatment ([5]; A-72 cells, […]): Neither the cathepsin B nor the cathepsin L inhibitor had an effect
infection by FIPV-1146 (entry), inhibitor pre-incubation [6, 21]: almost completely blocked infection
infection by FIPV-1146, inhibitor treatment after entry ([6]; A-72 cells, inhibitor 60 min post-infection, fixed 6 h post-infection): no effect
inhibition of infection by FIPV-DF2 of primary feline blood monocytes [7]: 85-95%
replication of the serotype I FIPV strain [8]: can inhibit replication
infection by FIPV-DF2 of feline cell lines [9, 20]: almost completely prevented infection
production of FECV-1683 viral particles (extracellular virus, TCID50) [10]: considerably limited the production
infection by FECV-1683 (entry), inhibitor pre-incubation ([11]; A-72 cells): potently blocked infection
infection by FECV-1683, inhibitor treatment after entry ([11]; A-72 cells): no effect
inhibition of cathepsin B in a mouse [12]: inhibit cathepsin B
infection by FECV-1683 of feline cell lines [13]: almost completely prevented infection
apparent second order rate constant for cathepsin B [14]: 201 M⁻¹ s⁻¹

CC(C)C[C@H](NC(=O)OCc1ccccc1)C(=O)NNC(=O)NNC(=O)[C@H](CC(C)C)NC(=O)[C@H](Cc1ccccc1)NC(=O)OC(C)(C)C [Boc1, 1-(N-Benzyloxycarbonyl-leucyl)-5-(N-Boc-phenylalanyl-leucyl)carbohydrazide]
production of FIPV-1146 viral particles (extracellular virus, TCID50) [2]: no significant effect
influenza virus entry, cathepsin inhibitor treatment [5, 21]: no effect
infection by FIPV-1146 (entry), inhibitor pre-incubation [6, 21]: no effect
production of FECV-1683 viral particles (extracellular virus, TCID50) [10]: no significant effect
infection by FECV-1683 (entry), inhibitor pre-incubation ([11]; A-72 cells): no effect

CCOC(=O)[C@H]1O[C@@H]1C(=O)N[C@@H](CC(C)C)C(=O)NCCC(C)C [E-64d, (2S,3S)-trans-Epoxysuccinyl-L-leucylamido-3-methylbutane ethyl ester]
production of FIPV-1146 viral particles (extracellular virus, TCID50) [2]: significantly reduced
production of FECV-1683 viral particles (extracellular virus, TCID50) [10]: significantly reduced
effect on influenza virus infection [15]: no effect

Cl.N [NH4Cl]
Sendai virus entry [16]: no reduction in entry
infection by FIPV-1146 of feline cell lines [3]: only a marginal effect
influenza virus entry [5]: completely inhibited
FIPV-1146 entry [6]: only partially blocked
FIPV-1146 infection, lysosomotropic agent treatment after entry [6]: minimal effect
FIPV-1146 infectivity, treatment after entry at higher concentrations [6]: significantly reduce infectivity
inhibition of entry of FIPV-1146 [6]: approximately 20%
infection by FIPV-DF2 of feline cell lines [9]: only a marginal effect
FECV-1683 infection, lysosomotropic agent treatment after entry [11]: minimal effect
FECV-1683 infectivity, treatment after entry at higher concentrations [11]: significantly reduce infectivity
entry by FECV-1683 [11]: almost completely blocked entry
infection by FECV-1683 of feline cell lines [13]: selectively inhibited

CC(C)(C)Oc1ccc(C[C@H](NC(=O)[C@H](Cc2ccccc2)NC(=O)OCc2ccccc2)C(=O)C=[N+]=[N-])cc1 [Z-FY-(tBu)-DMK, Z-Phe-Tyr(t-Bu)-diazomethylketone] (Cbz-Phe-Tyr(tBu)-CHN2)
effect on FIPV-1146 infection of primary feline monocytes (in words) [1]: no significant effect
production of FIPV-1146 viral particles (extracellular virus, TCID50) [2]: only a negligible effect
infection by FIPV-1146 of feline cell lines [3, 20]: little or no effect
influenza virus entry, cathepsin inhibitor treatment ([5]; A-72 cells, […]): Neither the cathepsin B nor the cathepsin L inhibitor had an effect
infection by FIPV-1146 (entry), inhibitor pre-incubation [6, 21]: no effect on FIPV-1146 entry, except for some limited effect at the highest concentration tested
effect on FIPV-DF2 infection of primary feline monocytes (in words) [7]: no significant effect
infection by FIPV-DF2 of feline cell lines [9, 20]: little or no effect
production of FECV-1683 viral particles (extracellular virus, TCID50) [10]: greatly diminished the propagation
infection by FECV-1683 (entry), inhibitor pre-incubation ([11]; A-72 cells): potently blocked infection
infection by FECV-1683, inhibitor treatment after entry ([11]; A-72 cells): no effect
infection by FECV-1683 of feline cell lines [13]: selectively inhibited

CO/C1=C\C(C)=C\[C@@H](C)[C@@H](O)[C@@H](C)C/C(C)=C/C=C/[C@H](OC)[C@@H]([C@@H](C)[C@@H](O)[C@H](C)[C@@]2(O)C[C@@H](O)[C@H](C)[C@@H](C(C)C)O2)OC1=O [bafilomycin A1]
Sendai virus entry ([16]; A-72 cells, bafilomycin A1 at the concentrations tested): unaffected
Sendai virus infection, post-treatment [16, 22]: no effect
influenza virus infection, post-treatment [5, 22]: no effect
entry of influenza virus [5, 23]: completely blocked entry
FIPV-1146 infectivity, treatment after entry at higher concentrations [6]: significantly reduce infectivity
FIPV-1146 infection, lysosomotropic agent treatment after entry [6, 24]: minimal effect
inhibition of entry by FIPV-1146 [6, 23]: approximately 40%
FECV-1683 infectivity, treatment after entry at higher concentrations [11]: significantly reduce infectivity
FECV-1683 infection, lysosomotropic agent treatment after entry [11, 24]: minimal effect
entry of FECV-1683 [11, 23]: completely blocked entry

CC(=O)N[C@@H](CC(C)C)C(=O)N[C@@H](CC(C)C)C(=O)N[C@H](C=O)CCCNC(=N)N [leupeptin]
replication of human coronavirus [17]: inhibits
inhibition of FIPV [18]: does not strongly inhibit
replication of murine coronavirus A59 [19]: does not strongly inhibit

B1: cystatin C: a potent inhibitor of cathepsin B (protein, UniProt P01034 27-146, looked up)
Cystatin-C: SSPGKPPRLVGGPMDASVEEEGVRRALDFAVGEYNKASNDMYHSRALQVVRARKQIVAGVNYFLDVELGRTTCTKTQPNLDNCPFHDQPHLKRKAFCSFQIYAVPWQGTMTLSKSTCQDA
replication of human coronavirus [17]: inhibited replication
replication of murine coronavirus A59 [19]: lack of inhibition
